Source: PMC12040169 (PLOS Biology, 2025)

Experiment: in vitro
Conditions: human, hela cells, % viability

Row | Structure (SMILES) | viability at 28.5 h, 10 µM
1 | CC(=O)N(C)Cc1cccc(Nc2ncnc3c2cnn3C)c1 [CBK306319] | 95.3%
2 | COc1cc(OC)nc(Oc2ccc(C(=O)O)cc2)n1 [CBK092222] | 106%
3 | Cc1cn([C@@H]2O[C@H](CO)[C@H](O)C2O)c(=O)[nH]c1=O (stereo partly drawn) [CBK201265] | 101%
4 | COc1ccnc(N2CCN(C(=O)c3cc(C)nn3C)CC2)n1 [CBK305967] | 83.7%
5 | CC(Oc1ccccc1)C(=O)N1CCN(CCO)CC1 (stereo not drawn) [CBK267428] | 98.6%
6 | CN(C)c1ncc(Br)cc1C(=O)NCCNS(=O)(=O)c1ccccc1 [CBK076504] | 89.4%
7 | CCCNc1nccnc1-c1ccccc1F [CBK037231] | 104%
8 | COc1cccc(NC(=O)N[C@H]2[C@H](O)[C@@H](N3CCOCC3)[C@@H]3OC[C@H]2O3)c1 [CBK288821] | 109%
9 | CN1CCC(N(C)C(=O)NCCCN2CCCC2=O)C1 (stereo not drawn) [CBK156021] | 92.3%
10 | C=C(C)C(=O)OCCOC(=O)c1cc(N)cc(N)c1 [CBK261389] | 101%
11 | Cc1ccc(S(=O)(=O)c2cc3c(=O)n4ccccc4nc3n(CCCN3CCOCC3)c2=N)cc1 [CBK265590] | 101%
12 | O=C(c1cccs1)N1C[C@@H]2C[C@H](C1)c1c(-c3cncnc3)ccc(=O)n1C2 [CBK289194] | 90.7%
13 | CC(=O)Nc1ccc2nc(NC(=O)c3ccc(C)cc3)sc2c1 [CBK287304] | 103%
14 | O=C(O)c1sccc1S(=O)(=O)Nc1ccc(Cc2nc3ccccc3s2)cc1 [CBK295286] | 92.8%
15 | c1cnc(NCc2cc3n(n2)CCN(CC2CCCCC2)C3)cn1 [CBK307592] | 80%
16 | COCCNC(=O)Cn1c(-c2ccco2)cc2cccnc21 [CBK282720] | 80.6%
17 | C[C@H](NC1=NC(=O)C2(CCN(Cc3ccccc3)CC2)O1)c1ccccc1 [CBK122798T] | 88.6%
18 | Cc1ccc(OCc2nnc(SCC(=O)c3ccc(Br)cc3)n2N)cc1 [CBK266482] | 99.5%
19 | COc1ccccc1/C=C/C1=NN(c2ccc(F)cc2)C(c2ccccc2OC)C1 (stereo not drawn) [CBK262303] | 81.1%
20 | COCC1(C(=O)N(C)Cc2nnc(-c3ccccc3)o2)CCC1 [CBK306987] | 109%
21 | COc1ccccc1-c1cc(Nc2cccc(N(C)C)c2)ncn1 [CBK091011] | 95.5%

Row | Structure (SMILES) | viability at 28.5 h, 10 µM
22 | Cc1cc2nc(N3CCN(C(=O)c4ccc(C#N)cc4)CC3)sc2cc1C [CBK287737] | 98.8%
23 | O=C(Nc1cccc(Br)c1)C1CN(S(=O)(=O)c2ccccc2)CCN1S(=O)(=O)c1ccccc1 (stereo not drawn) [CBK262671] | 79.7%
24 | O=c1[nH]c2ncc(-c3cncc4ccccc34)nc2n1C1CCC(O)CC1 (stereo not drawn) [CBK065013] | 108%
25 | CN1CCC(N2CCN(C(=O)c3ccc(-c4ccc(S(C)(=O)=O)cc4)nc3)CC2)CC1 [CBK158862] | 91.6%
26 | Cc1cc(NC(=O)c2cc(C)[nH]n2)c2ccccc2n1 [CBK116260] | 98.5%
27 | O=C(NC1CCS(=O)(=O)C1)c1cc(-c2cccnc2)cnc1NCc1ccc2c(c1)OCO2 (stereo not drawn) [CBK076455] | 89.2%
28 | O=c1n(C(c2ccccc2)c2ccccc2)ccn1S(=O)(=O)c1ccc(Oc2ccccc2)cc1 [CBK106624] | 89.5%
29 | NS(=O)(=O)c1ccc(NS(=O)(=O)c2ccc(NC(=O)Nc3ccc(Cl)cc3)cc2)cc1 [CBK264902] | 90.9%
30 | Cc1onc(-c2ccccc2)c1C(=O)Nc1ccc(N2CCNCC2)c2ccccc12 [CBK038942T] | 87%
31 | CC(C)C(=O)N1CC2(CCN(CC3COc4ccccc4O3)CC2)c2ccccc21 (stereo not drawn) [CBK143946] | 98.2%
32 | CC12CN(Cc3ccccc3)CC1NC(=O)c1ccccc1C2N (stereo not drawn) [CBK282850] | 99.5%
33 | COc1ccc(CN2CCN(c3nccnc3OC)CC2)cc1 [CBK084216] | 89.6%
34 | CC(=O)Nc1cccc(NC(=O)N2CCNC(=O)C2)c1 [CBK155863] | 77.7%
35 | COc1ccc(OCC(=O)N/N=C/c2ccc([N+](=O)[O-])s2)c(I)c1 [CBK261374] | 93.1%
36 | O=C(Cn1cnc2ccc(F)cc2c1=O)N1Cc2ccccc2C(c2ccccc2)C1 (stereo not drawn) [CBK296767] | 95.1%
37 | O=C(Nc1ccno1)Nc1ccc(Cl)cc1Cl [CBK057809] | 94.6%
38 | COc1ccc(-c2cn(-c3ccc(OC(F)(F)F)cc3)nn2)cc1 [CBK113024] | 110%
39 | CCn1c2ccccc2c2cc(NC(=O)C(C)Sc3n[nH]c(=O)n3C3CC3)ccc21 (stereo not drawn) [CBK296636] | 107%
40 | COc1cc(CNc2nc(-c3cccc4ccccc34)cn3ccnc23)cc(OC)c1OC [CBK037397] | 112%
41 | O=c1[nH]c(=S)[nH]c2c1CCC2 [CBK113252] | 92.4%
42 | O=C1c2ccccc2C2(c3ccccc3)NCCN12 (stereo not drawn) [CBK067098] | 101%

Row | Structure (SMILES) | viability at 28.5 h, 10 µM
43 | c1cc(C2CCCCN2Cc2ccc3[nH]ccc3c2)nc(Nc2nccs2)n1 (stereo not drawn) [CBK286109] | 83.6%
44 | CN(C)CCCC(=O)Nc1ccc2c(ccn2Cc2ccccc2)c1 [CBK159740] | 91.2%
45 | COCCN(C)C(=O)c1cn2cc(-c3cc(C)oc3C)n(C)c(=O)c2n1 [CBK306605] | 80.5%
46 | Cc1cc(C(F)F)n2nc(C(=O)Nc3ccc(S(=O)(=O)NC45CC6CC(CC(C6)C4)C5)cc3)nc2n1 [CBK266251] | 96.2%
47 | COc1ccc(CCNC(=O)CN2CCCCC2C)cc1 (stereo not drawn) [CBK304827] | 94.4%
48 | N#Cc1cccc(-n2cc(-c3ccc(C(F)(F)F)cc3)nn2)c1 [CBK112957] | 88.1%
49 | O=S(=O)(CCN1CCC(Cc2ccccc2)CC1)c1ccccc1 [CBK126386] | 94.9%
50 | Cc1ccc2ncnc(NC(CC(C)C)C(=O)O)c2c1 (stereo not drawn) [CBK275388] | 109%
51 | CC(NC(=O)N1CCCC(CO)C1)c1ccccc1 (stereo not drawn) [CBK156066] | 87.1%
52 | O=C(CN1CCCCC1)Nc1ccc(NC(=O)CN2CCCCC2)c(Cl)c1 [CBK264173] | 111%
53 | O=C(c1ccccc1)N1CCCC(c2cccc(Cc3ccc(Cl)cc3)n2)C1 (stereo not drawn) [CBK286502] | 99.5%
54 | CC(=O)Oc1cccc(N2C(=O)c3ccc(Oc4cccc(N)c4)cc3C2=O)c1 [CBK261099] | 96.4%
55 | Cc1ccc(C)c(NC(=O)c2cnc3sccn3c2=O)c1 [CBK287451] | 85.1%
56 | O=C(O)c1ccc(CN2C[C@H](O)C[C@H]2c2nc(-c3ccccn3)no2)cc1 [CBK288869] | 90%
57 | COC(=O)c1c(NC(=S)Nc2cn(C)nc2C(N)=O)sc2c1CCCCC2 [CBK266849] | 93.4%
58 | Cc1cc(C)n(CC(C)CNC(=O)Cc2csc(-c3ccco3)n2)n1 (stereo not drawn) [CBK305628] | 103%
59 | O=C(O)Cc1ccc(NC(=O)CN2C(=O)c3ccccc3C2=O)cc1 [CBK268562] | 104%
60 | Cc1cc(NC(=O)CN2CCN(c3ccccc3)CC2)c2ccccc2n1 [CBK278322G] | 99.5%
61 | COc1ccc(C(=O)/C=C/c2cccs2)c(OC(=O)c2ccc([N+](=O)[O-])cc2)c1 [CBK264926] | 118%
62 | CC(=O)C1=C(O)C(=O)N(CCCC(=O)O)C1c1ccc(Br)cc1 (stereo not drawn) [CBK286784] | 115%
63 | Nc1nc(=O)n([C@H]2C[C@@H](O)[C@@H](CO)O2)cc1I [CBK201226] | 90.4%
